Experimental data reported in patent US20120253264A1, “PHOTOCHEMICAL INTERNALIZATION METHOD” (priority 2009, published 2012).
Like-named read-outs stand apart in the source and are kept apart here. Each block holds one compound with its values, some of them ahead of it.

How the values were obtained:
[1] = Stability of aqueous solutions of TPPS2a and TPCS2a salts at 40° C. for 31 days, analyzed by HPLC; format: physicochemical
Protocol: Aqueous solutions of TPPS2a salts (approx. 1% weight) were kept at 40° C. for 31 days. The solutions were analyzed by HPLC(HP 1100). The HPLC conditions were as follows:
Column: Agilent Extend C-18
Mobile phase: 85% methanol, 15% water
Detector: UV detector, 415 nm
Aqueous solutions of TPCS2a salts (approx. 1% weight) were kept at 40° C. for 31 days.

[2] = Solubility in water of TPPS2a and TPCS2a salts (water added in 0.2 ml portions to approx. 50 mg)
Source text: (§1) The mixture was agitated until solid particles were broken up and dissolved.
as §1

[3] = TPPS2a salts, aqueous solution approx. 1% weight, 40° C., 31 days, HPLC UV 415 nm

Compound: NCCO.NCCO.O=S(=O)(O)c1ccc(-c2c3nc(c(-c4ccc(S(=O)(=O)O)cc4)c4ccc([nH]4)c(-c4ccccc4)c4nc(c(-c5ccccc5)c5ccc2[nH]5)C=C4)C=C3)cc1 [Example 1, Meso-Tetraphenyl Porphyrin Disulphonate Bis(Monoethanolamine)]
Degradation [1, 3]: No degradation

Degradation [1]: No degradation | Minimum solubility in water [2]: 89.7 mg/mL
Compound: CNCC(O)C(O)C(O)C(O)CO.CNCC(O)C(O)C(O)C(O)CO.O=S(=O)(O)c1ccc(-c2c3nc(c(-c4ccccc4)c4ccc([nH]4)c(-c4ccccc4)c4nc(c(-c5ccc(S(=O)(=O)O)cc5)c5ccc2[nH]5)C=C4)C=C3)cc1 [Example 2, Meso-Tetraphenyl Porphyrin Disulphonate Bis(Meglumate)]

Degradation [1]: No degradation
Compound: O=S(=O)(O)c1ccc(-c2c3nc(c(-c4ccccc4)c4ccc([nH]4)c(-c4ccccc4)c4nc(c(-c5ccc(S(=O)(=O)O)cc5)c5ccc2[nH]5)C=C4)C=C3)cc1.OCCNCCO.OCCNCCO [Example 4, Meso-Tetraphenyl Porphyrin Disulphonate Bis(Diethanolamine)]

Compound: O=S(=O)(O)c1ccc(-c2c3nc(c(-c4ccc(S(=O)(=O)O)cc4)c4ccc([nH]4)c(-c4ccccc4)c4nc(c(-c5ccccc5)c5ccc2[nH]5)C=C4)C=C3)cc1.OCCN1CCCC1.OCCN1CCCC1 [Example 5, Meso-Tetraphenyl Porphyrin Disulphonate Bis(1-(2-Hydroxyethyl)Pyrrolidine)]
Degradation [1]: No degradation

Compound: O=S(=O)(O)c1ccc(-c2c3nc(c(-c4ccc(S(=O)(=O)O)cc4)c4ccc([nH]4)c(-c4ccccc4)c4nc(c(-c5ccccc5)c5ccc2[nH]5)C=C4)C=C3)cc1.OCCN(CCO)CCO.OCCN(CCO)CCO [Example 6, Meso-Tetraphenyl Porphyrin Disulphonate Bis(Triethanolamine)]
Degradation [1, 3]: No degradation

Compound: Meso-Tetraphenyl Chlorin Disulphonate Bis(Meglumate) [Example 8]
Degradation ([1]; TPCS2a salts, aqueous solution approx. 1% weight, 40° C., 31 days, HPLC): No degradation | Minimum solubility in water ([2]; TPCS2a salts, water added in 0.2 ml portions to approx. 50 mg until dissolved): 38.9 mg/mL

Degradation [1]: No degradation
Compound: Meso-Tetraphenyl Chlorin Disulphonate Bis(Monoethanolamine) [Example 7]
